Measurements taken from patent US9540343B2 (Gilead Sciences, Inc., priority 2011, dated 2017).

Assays:
HIV-IIIb = assay: Test A: Antiviral assay in MT4 cells; format: cell-based, HIV-1; conditions: MT-4 cells infected with HIV-IIIb, 5 days, CellTiter-Glo; for inhibition at 2 µM: Human immunodeficiency virus 1, IIIB, MT4, 120 h, read-out: % inhibition at 2 μM, percent inhibition of virus-induced cell killing, from dose response curve at 2 uM drug; for % inhibition at 2 μM: percent inhibition of virus-induced cell killing, from dose response curve at 2 uM drug
in vitro = conditions: human, uninfected MT-4 cells, CC50 (nM), same protocol as Test A, CellTiter-Glo
Outline: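 Cytoprotection read-out: CellTiter-Glo chemiluminescence after 5 days at 37 °C of HIV-IIIb-infected MT-4 cells (m.o.i. 0.003) with compound in 10-point 3-fold dilutions, quadruplicate, 10% FBS. Cytotoxicity (CC50) measured identically without virus.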

What does the source list for `NC(=O)c1cc(-c2cccnc2[C@H](Cc2cc(F)cc(F)c2)NC(=O)Cn2cc(CN3CCOCC3)c(C(F)(F)F)n2)ccc1F` [Example 305, (S)-5-(2-(2-(3,5-difluorophenyl)-1-(2-(4-(morpholinomethyl)-3-(trifluoromethyl)-1H-pyrazol-1-yl)acetamido)ethyl)pyridin-3-yl)-2-fluorobenzamide]?
inhibition at 2 µM (HIV-IIIb): 0%; CC50 at 5 days (in vitro): > 53200 nM

With `NC(=O)c1cc(-c2cccnc2[C@H](Cc2cc(F)cc(F)c2)NC(=O)C(c2ccccc2)C2CCCC2)ccc1F` (single isomer, unassigned) [Example 515] as the compound, how does the “% inhibition at 2 μM” value (HIV-IIIb) read?
The value was 0%.

What about the CC50 at 5 days (in vitro) of the same compound?
The CC50 at 5 days was 9460 nM.

Which inhibition at 2 µM (HIV-IIIb) does the source give for `NC(=O)c1cc(-c2cccnc2[C@H](Cc2cc(F)cc(F)c2)NC(=O)Cn2nc(C(F)(F)F)c3c2C(F)(F)CC3)ccc1F` [Example 283C, (S)-5-(2-(1-(2-(6,6-difluoro-3-(trifluoromethyl)-5,6-dihydrocyclopenta[c]pyrazol-1(4H)-yl)acetamido)-2-(3,5-difluorophenyl)ethyl)pyridin-3-yl)-2-fluorobenzamide] here?
Its inhibition at 2 µM is 65%.

What about the CC50 at 5 days (in vitro) of the same compound?
Its CC50 at 5 days is 24400 nM.

Which inhibition at 2 µM (HIV-IIIb) does the source give for `O=C(Cc1c[nH]c2ccc(F)cc12)N[C@@H](Cc1cc(F)cc(F)c1)c1ncccc1-c1ccccc1Cl` [Example 395, (S)—N-(1-(3-(2-chlorophenyl)pyridin-2-yl)-2-(3,5-difluorophenyl)ethyl)-2-(5-fluoro-1H-indol-3-yl)acetamide] here?
The inhibition at 2 µM was 41%.

And the CC50 at 5 days (in vitro)?
Its CC50 at 5 days is 11600 nM.

For `NC(=O)c1cc(-c2cccnc2[C@H](Cc2cc(F)cc(F)c2)NC(=O)C2CCCN2C(=O)c2ccccc2)ccc1F` (stereo partly drawn) [Example 126, 1-benzoyl-N—((S)-1-(3-(3-carbamoyl-4-fluorophenyl)pyridin-2-yl)-2-(3,5-difluorophenyl)ethyl)pyrrolidine-2-carboxamide], which inhibition at 2 µM (HIV-IIIb) is on record?
The inhibition at 2 µM was 7%.

And the CC50 at 5 days (in vitro)?
Its CC50 at 5 days is greater than 53000 nM.

With `CS(=O)(=O)Nc1ccc(-c2cccnc2[C@H](Cc2cc(F)cc(F)c2)NC(=O)Cn2nc(C(F)F)c3c2C(F)(F)C2CC32)cc1` (stereo partly drawn) [Example 433, (S)—N-(1-(3-(4-(methylsulfonamido)phenyl)-pyridin-2-yl)-2-(3,5-difluorophenyl)ethyl)-2-(3-(difluoromethyl)-5,6-dihydro-4,5-(methano)-6,6-difluoro-cyclopenta[c]pyrazol-1(4H)-yl)acetamide] as the compound, how does the inhibition at 2 µM (HIV-IIIb) read?
Its inhibition at 2 µM is 16%.

What about the CC50 at 5 days (in vitro) of the same compound?
Its CC50 at 5 days is 20800 nM.

Which inhibition at 2 µM (HIV-IIIb) does the source give for `O=C(Cc1c[nH]c2ccc(F)cc12)NC(Cc1cc(F)cc(F)c1)c1nccnc1-c1ccc(Cl)cc1` (stereo not drawn) [Example 459, N-(1-(3-(4-chlorophenyl)pyrazin-2-yl)-2-(3,5-difluorophenyl)ethyl)-2-(5-fluoro-1H-indol-3-yl)acetamide] here?
Its inhibition at 2 µM is 28%.

And the CC50 at 5 days (in vitro)?
The CC50 at 5 days was 14200 nM.

What does the source list for `O=C(Cc1c[nH]c2ccc(F)cc12)N[C@@H](Cc1cc(F)cc(F)c1)c1ncccc1-c1ccc(S(=O)(=O)N2CCOCC2)cc1` [Example 82, (S)—N-(2-(3,5-difluorophenyl)-1-(3-(4-(morpholinosulfonyl)phenyl)pyridin-2-yl)ethyl)-2-(5-fluoro-1H-indol-3-yl)acetamide]?
inhibition at 2 µM (HIV-IIIb): 114%; CC50 at 5 days (in vitro): 19300 nM

What does the source list for `NC(=O)c1cc(-c2cccnc2[C@H](Cc2cccc(F)c2)NC(=O)Cn2nc(C(F)(F)F)c3c2CCCC3)ccc1F` [Example 229, (S)-2-fluoro-5-(2-(2-(3-fluorophenyl)-1-(2-(3-(trifluoromethyl)-4,5,6,7-tetrahydro-1H-indazol-1-yl)acetamido)ethyl)pyridin-3-yl)benzamide]?
inhibition at 2 µM (HIV-IIIb): 95%; CC50 at 5 days (in vitro): 18600 nM

With `NC(=O)c1cccc(-c2cccnc2[C@H](Cc2cc(F)cc(F)c2)NC(=O)Cn2nc(C(F)(F)F)c3c2COCC3)c1` [Example 144, (S)-3-(2-(2-(3,5-difluorophenyl)-1-(2-(3-(trifluoromethyl)-4,5-dihydropyrano[3,4-c]pyrazol-1(7H)-yl)acetamido)ethyl)pyridin-3-yl)benzamide] as the compound, how does the inhibition at 2 µM (HIV-IIIb) read?
The inhibition at 2 µM was 89%.

What about the CC50 at 5 days (in vitro) of the same compound?
Its CC50 at 5 days is greater than 53000 nM.

For `NC(=O)c1cc(-c2cccnc2[C@H](Cc2cccc(F)c2)NC(=O)Cn2nc(C(F)(F)F)c3c2CCSC3)ccc1F` [Example 228B, (S)-2-fluoro-5-(2-(2-(3-fluorophenyl)-1-(2-(3-(trifluoromethyl)-6,7-dihydrothiopyrano[4,3-c]pyrazol-1(4H)-yl)acetamido)ethyl)pyridin-3-yl)benzamide], which inhibition at 2 µM (HIV-IIIb) is on record?
The inhibition at 2 µM was 51%.

What about the CC50 at 5 days (in vitro) of the same compound?
Its CC50 at 5 days is 23400 nM.

With `O=C(Cn1nc(C(F)F)c2c1C(F)(F)C1CC21)N[C@@H](Cc1cc(F)cc(F)c1)c1ncccc1-c1ccc2ncccc2c1` (stereo partly drawn) [Example 411, (S)—N-(1-(3-(quinoline-6-yl)-pyridin-2-yl)-2-(3,5-difluorophenyl)ethyl)-2-(3-(difluoromethyl)-5,6-dihydro-4,5-(methano)-6,6-difluoro-cyclopenta[c]pyrazol-1(4H)-yl)acetamide] as the compound, how does the inhibition at 2 µM (HIV-IIIb) read?
The inhibition at 2 µM was 53%.

What about the CC50 at 5 days (in vitro) of the same compound?
The CC50 at 5 days was 8980 nM.

Which results are given for `NS(=O)(=O)c1cccc(-c2cncnc2[C@H](Cc2cc(F)cc(F)c2)NC(=O)Cc2c[nH]c3ccc(O)cc23)c1` [Example 295B, (S)—N-(2-(3,5-difluorophenyl)-1-(5-(3-sulfamoylphenyl)pyrimidin-4-yl)ethyl)-2-(5-hydroxy-1H-indol-3-yl)acetamide]?
inhibition at 2 µM (HIV-IIIb): 99%; CC50 at 5 days (in vitro): > 53200 nM

Which inhibition at 2 µM (HIV-IIIb) does the source give for `Cc1ccc2ccn(CC(=O)N[C@@H](Cc3cc(F)cc(F)c3)c3ncccc3-c3ccc(F)c(C(N)=O)c3)c2c1` [Example 545, (S)-5-(2-(2-(3,5-difluorophenyl)-1-(2-(6-methyl-1H-indol-1-yl)acetamido)ethyl)pyridin-3-yl)-2-fluorobenzamide] here?
Its inhibition at 2 µM is 37%.

What about the CC50 at 5 days (in vitro) of the same compound?
Its CC50 at 5 days is 15900 nM.

Which results are given for `NC(=O)c1cc(-c2cccnc2C(Cc2cc(F)cc(F)c2)NC(=O)Cn2nc(C(F)F)c3c2C(F)(F)CCC3F)ccc1F` (stereo not drawn) [Example 390, 5-(2-(1-(2-(3-(difluoromethyl)-4,7,7-trifluoro-4,5,6,7-tetrahydro-1H-indazol-1-yl)acetamido)-2-(3,5-difluorophenyl)ethyl)pyridin-3-yl)-2-fluorobenzamide]?
inhibition at 2 µM (HIV-IIIb): 99%; CC50 at 5 days (in vitro): 21600 nM

What does the source list for `NC(=O)c1cc(-c2cccnc2[C@H](Cc2cc(F)cc(F)c2)NC(=O)Cn2[nH]c(=O)c3c2CCCC3)ccc1F` [Example 123E, (S)-5-(2-(2-(3,5-difluorophenyl)-1-(2-(3-oxo-2,3,4,5,6,7-hexahydro-1H-indazol-1-yl)acetamido)ethyl)pyridin-3-yl)-2-fluorobenzamide]?
inhibition at 2 µM (HIV-IIIb): 84%; CC50 at 5 days (in vitro): > 53200 nM

For `CS(=O)(=O)c1ccc2[nH]cc(CC(=O)N[C@@H](Cc3cc(F)cc(F)c3)c3ncccc3-c3ccc(F)c(C(N)=O)c3)c2c1` [Example 464, (S)-5-(2-(2-(3,5-difluorophenyl)-1-(2-(5-(methylsulfonyl)-1H-indol-3-yl)acetamido)ethyl)pyridin-3-yl)-2-fluorobenzamide], which inhibition at 2 µM (HIV-IIIb) is on record?
The inhibition at 2 µM was 119%.

And the CC50 at 5 days (in vitro)?
The CC50 at 5 days was greater than 53200 nM.

With `O=C(Cn1nc(C(F)F)c2c1C1CC1CC2)NC(Cc1cc(F)cc(F)c1)c1ncncc1-c1cnc2[nH]ccc2c1` (single isomer, unassigned) [Example 329] as the compound, how does the “% inhibition at 2 μM” value (HIV-IIIb) read?
The value was 99%.

And the CC50 at 5 days (in vitro)?
Its CC50 at 5 days is 14700 nM.

Which inhibition at 2 µM (HIV-IIIb) does the source give for `NC(=O)c1cc(-c2cccnc2[C@H](Cc2cc(F)cc(F)c2)NC(=O)Cn2ccc3ccc(C(F)(F)F)cc32)ccc1F` [Example 591, (S)-5-(2-(2-(3,5-difluorophenyl)-1-(2-(6-(trifluoromethyl)-1H-indol-1-yl)acetamido)ethyl)pyridin-3-yl)-2-fluorobenzamide] here?
Its inhibition at 2 µM is 15%.

What about the CC50 at 5 days (in vitro) of the same compound?
Its CC50 at 5 days is 14200 nM.

Which results are given for `COCCOc1ccc(-c2cccnc2[C@H](Cc2cc(F)cc(F)c2)NC(=O)Cn2nc(C(F)F)c3c2C(F)(F)C2CC32)cc1` (stereo partly drawn) [Example 217, 2-(3-(difluoromethyl)-5,5-difluoro-3b,4,4a,5-tetrahydro-1H-cyclopropa[3,4]cyclopenta[1,2-c]pyrazol-1-yl)-N—((S)-2-(3,5-difluorophenyl)-1-(3-(4-(2-methoxyethoxy)phenyl)pyridin-2-yl)ethyl)acetamide]?
inhibition at 2 µM (HIV-IIIb): 92%; CC50 at 5 days (in vitro): 29600 nM

With `CN(C)S(=O)(=O)c1ccc(-c2cccnc2[C@H](Cc2cc(F)cc(F)c2)NC(=O)Cn2nc(C(F)F)c3c2C(F)(F)C2CC32)cc1` (stereo partly drawn) [Example 119, (S)—N-(1-(3-(4-(N,N-dimethylsulfamoyl)phenyl)-pyridin-2-yl)-2-(3,5-difluorophenyl)ethyl)-2-(3-(difluoromethyl)-5,6-dihydro-4,5-(methano)-6,6-difluoro-cyclopenta[c]pyrazol-1(4H)-yl)acetamide] as the compound, how does the inhibition at 2 µM (HIV-IIIb) read?
The inhibition at 2 µM was 48%.

What about the CC50 at 5 days (in vitro) of the same compound?
The CC50 at 5 days was greater than 53200 nM.

Which results are given for `Cc1cc2ncn(CC(=O)N[C@@H](Cc3cc(F)cc(F)c3)c3ncccc3-c3ccc(F)c(C(N)=O)c3)c2cc1C` [Example 564, (S)-5-(2-(2-(3,5-difluorophenyl)-1-(2-(5,6-dimethyl-1H-benzo[d]imidazol-1-yl)acetamido)ethyl)pyridin-3-yl)-2-fluorobenzamide]?
inhibition at 2 µM (HIV-IIIb): 100%; CC50 at 5 days (in vitro): 10300 nM

For `CC1CCCc2c(C(F)(F)F)nn(CC(=O)N[C@@H](Cc3cc(F)cc(F)c3)c3ncccc3-c3cccc(C(N)=O)c3)c21` (stereo partly drawn) [Example 52, 3-(2-((1S)-2-(3,5-difluorophenyl)-1-(2-(7-methyl-3-(trifluoromethyl)-4,5,6,7-tetrahydro-1H-indazol-1-yl)acetamido)ethyl)pyridin-3-yl)benzamide], which inhibition at 2 µM (HIV-IIIb) is on record?
Its inhibition at 2 µM is 92%.

What about the CC50 at 5 days (in vitro) of the same compound?
The CC50 at 5 days was 13300 nM.

With `NC(=O)c1cc(-c2cccnc2[C@H](Cc2cc(F)cc(F)c2)NC(=O)Cn2nc(C(F)F)c3c2C(O)CCC3)ccc1F` (stereo partly drawn) [Example 384, 5-(2-((1S)-1-(2-(3-(difluoromethyl)-7-hydroxy-4,5,6,7-tetrahydro-1H-indazol-1-yl)acetamido)-2-(3,5-difluorophenyl)ethyl)pyridin-3-yl)-2-fluorobenzamide] as the compound, how does the inhibition at 2 µM (HIV-IIIb) read?
Its inhibition at 2 µM is 97%.

And the CC50 at 5 days (in vitro)?
The CC50 at 5 days was greater than 53200 nM.
